The RepoRT retention time repository (doi:10.1016/j.scitotenv.2015.08.078)

Test: RP, Waters ACQUITY UPLC BEH C18, 100 × 2.1 mm, 1.7 µm, 0.3 mL/min, estimated dead time 0.73 min; A: water + 0.1% formic acid, pH 3; B: methanol + 0.1% formic acid, pH 3; gradient (min/%B) 0/10 14/90 16/90 18/10
Settings: stereoisomer not certain

Structure (SMILES) | LC retention time [min]
CC(C)(C)C(O)(CCc1ccc(Cl)cc1)Cn1cncn1 (stereo unspecified) [Tebuconazole] | 11.8
CC(C)Nc1nc(N)nc(Cl)n1 [Deetheylatrazine] | 6.06
CC(COc1ccc(Oc2ccccc2)cc1)Oc1ccccn1 (stereo unspecified) [Pyriproxyfen] | 14
CC(Cc1ccc(C(C)(C)C)cc1)CN1CC(C)OC(C)C1 (stereo unspecified) [Fenpropimorph] | 14.1
CN1C(=O)C(O)N=C(c2ccccc2)c2cc(Cl)ccc21 (stereo unspecified) [Temazepam] | 10.1
CCNc1nc(NC(C)C(C)C)nc(SC)n1 (stereo unspecified) [Dimethametryn] | 11.4
CCNc1nc(NCC)nc(SC)n1 [Simetryn] | 8.78
CCCN(CCC)C(=O)SCc1ccccc1 [Prosulfocarb] | 12.6
CCc1cccc(C)c1N(C(=O)CCl)C(C)COC (stereo unspecified) [Metolachlor] | 11.7
N#CN=C1SCCN1Cc1ccc(Cl)nc1 [Thiacloprid] | 6.28
CNc1cnn(-c2cccc(C(F)(F)F)c2)c(=O)c1Cl [Norflurazon] | 9.22
O=C1OC(CN2CCOCC2)CN1N=Cc1ccc([N+](=O)[O-])o1 (stereo unspecified) [Furaltadone] | 2.64
Nc1ccc(S(=O)(=O)NC(=O)c2ccccc2)cc1 [Sulfabenzamide] | 3
CC12CCC(=O)C=C1CCC1C2C(O)CC2(C)C(C(=O)CO)CCC12 (stereo unspecified) [Corticosterone] | 9.37
CON=C(C(=O)NC1C(=O)N2C(C(=O)O)=C(COC(N)=O)CSC12)c1ccco1 (stereo unspecified) [Cefuroxime] | 9.51
NC(=NN=Cc1ccc(Cl)cc1)NN=Cc1ccc(Cl)cc1 [Robenidine] | 10.9
CN(C)CCOC(c1ccccc1)c1ccccc1 [Diphenhydramine] | 7.71
CCSC(=O)N(CC)C1CCCCC1 [Cycloate] | 12.3

Structure (SMILES) | LC retention time [min]
OC(c1ccc(F)cc1)(c1cncnc1)c1ccccc1Cl (stereo unspecified) [Nuarimol (Trimidal)] | 10
CN(C)S(=O)(=O)N(SC(F)(Cl)Cl)c1ccccc1 [Dichlofluanid] | 10.8
O=C(O)c1cn(-c2ccc(F)cc2)c2cc(N3CCNCC3)c(F)cc2c1=O [Sarafloxacin] | 5.12
CN(C)CCCN1c2ccccc2Sc2ccc(Cl)cc21 [Chlorpromazine] | 10.3
CC(C)(C)C(O)C(Oc1ccc(Cl)cc1)n1cncn1 (stereo unspecified) [Triadimenol] | 11.3
CCCCOC(=O)c1ccccc1C(=O)OCc1ccccc1 [Benzyl butyl phthalate] | 12.4
CCC1OC(=O)C(C)C(OC2CC(C)(OC)C(O)C(C)O2)C(C)C(OC2OC(C)CC(N(C)C)C2O)C(C)(O)CC(C)C(=O)C(C)C(O)C1(C)O (stereo unspecified) [Erythromycin] | 9.41
Nc1ccccc1O [2-Aminophenol] | 1.44
Cc1cc2c(s1)Nc1ccccc1N=C2N1CCN(C)CC1 [Olanzapine] | 3.3
CC(C)c1ncc([N+](=O)[O-])n1C [Ipronidazole (IPZ)] | 5.42
CNC(=O)Oc1cc(C)cc(C(C)C)c1 [Promecarb] | 10.3
Nc1ccc(S(=O)(=O)Nc2nccs2)cc1 [Sulfathiazole] | 2.26
CCn1cc(C(=O)O)c(=O)c2cnc(N3CCNCC3)nc21 [Pipemidic acid] | 3.48
CCOP(=O)(SC(C)CC)N1CCSC1=O (stereo unspecified) [Fosthiazate] | 8.33
CCCCCCCCC=CC1CCC(=O)O1 (stereo unspecified) [japonilure] | 9.82
CCCCOC(=O)N(C)SN(C)C(=O)Oc1cccc2c1OC(C)(C)C2 [Furathiocarb] | 12.8
CC(C)Oc1cc(-n2nc(C(C)(C)C)oc2=O)c(Cl)cc1Cl [Oxadiazon] | 13
COc1nc(C)nc(NC(=O)NS(=O)(=O)c2ccccc2Cl)n1 [Chlorsulfuron] | 7.94
